Measurements as given in patent publication US20120295838A1, “Selective poly-substituted glycine antibiotics and related compositions” (priority 2008, published 2012).
Converted amounts (≈) assume the structure as drawn. Where two headings read alike, the source gives them in different places. Numbered stars: 1 amine (or outer) side, 2 acyl side, 3 side chain; on linkers, the order of the positions; unused ones are H or OH. Square brackets hold non-standard residues; d marks the D form. Ends that are not written are not given here. Peptide text beside a SMILES is read from it. Gly(N-CH2CH2-imidazol-4-yl) = O=C(O)CNCCc1c[nH]cn1; X1 = CC(C)[C@H](C)N(CC(=O)[*:2])[*:1]; Nspe = C[C@H](NCC(=O)O)c1ccccc1; Nphe = O=C(O)CNCc1ccccc1; Nlys = NCCCCNCC(=O)O

Assays:
E. coli JM109 = assay type: cell-based; conditions: Table 1; SR = (HD10)/(E. coli MIC); listed as 1-/Vhis6,12
Excerpt: An initial set of 15 ampetoid analogs was synthesized to determine whether peptoids are affected by structural and sequence modifications in a manner consistent with AMP activities. The designs for ampetoids in this library were derived from two antibacterial and selective amphipathic dodecamers, 1 and 2. Peptoid 1 [H-(Nlys-Nspe-Nspe)4-NH2] is composed of 2/3 Nspe, the peptoid analog of phenylalanine, and 1/3 Mys, the peptoid analog of lysine (see FIG. 1 for the structures of representative peptoid monomers and corresponding N-substituents). Peptoid 2 [H-(Mys-Nssb-Nspe)4-NH2] contains 1/3 isoleucine-like Nssb monomers in place of Nspe. The variant sequences were designed to effect changes in chirality, length, hydrophobicity, charge, and amphipathicity. All of these compounds were tested for antibacterial activity against representative BSL1 Gram-negative (E. coli JM109) and Gram-positive (B. subtilis BR151) bacterial strains. As an initial measure of selectivity, the lytic activity of the peptoids was determined against human erythrocytes. Table 1 summarizes the sequences synthesized, the solvent composition at RP-HPLC elution as a relative measure of molecular hydrophobicity, and antibacterial and hemolytic activities.
Antibacterial assays. MICs were determined according to CLSI M7-A6 protocols in a 96-well microtiter plate. […]

[1] = tested on: Staphyloccus aureus (ATCC #25923); assay: Murine intraperitoneal infection model; assay type: in vivo; conditions: mouse, S. aureus I.P.
Description: Using a murine peritoneal injection mouse model, the ability of peptoids to treat infection was evaluated in vivo. The results from three separate studies of peptoid 1 and two of peptoid 1-Nhis6,12 against saline treated controls are shown in FIG. 7. The horizontal line represents the geometric mean of each population.
Murine intraperitoneal infection model. Bacteria was prepared by inoculating 5 mL of MHB with a single colony of Staphyloccus aureus (ATCC #25923) from a freshly streaked plate and grown overnight at 37 C. The following morning, the bacteria was subcultured by diluting 1/3 in MHB and grown for approximately 1 .5 hours. The bacteria were then diluted 10-fold in a 5% mucin in PBS solution and thoroughly mixed. A sample was reserved to later determine the amount of bacteria the mice received.
Mice were weighed, marked, and injected I.P. with 200 uL of S. aureus inoculum. Four hours post infection, mice were treated I.P. with 4 mg/kg peptoid (˜100 ug per mouse). The infection is allowed to proceed overnight. Mice were euthanized by CO2 asphyxiation after 24 hours, and the peritoneal cavity was exposed and lavaged with 5 mL PBS. The lavage was mixed and reserved on ice until plating. The lavages were diluted to 10^−5 (in1/10 increments) in PBS, and all dilutions were plated onto MH agar, in duplicate. 50 uL of lavage was spot plated, allowed to dry, and incubated overnight at 37° C. Colonies were counted the following day, and the CFU/ml of each sample was calculated. Plates that had too many colonies to count were assigned an arbitrary number of 1000 colonies.

[2] = tested on: Staphylococcus aureus NRS120; assay type: cell-based; conditions: for Selectivity ratio (SR): Table 7B, 10% hemolytic dose divided by MIC, S. aureus NRS120
Description: (§1) Antibacterial assays. MICs were determined according to CLSI M7-A6 protocols in a 96-well microtiter plate. In test wells, 50 uL bacterial inoculum (5×10^5 CFU/ml) in Mueller-Hinton broth (MHB) was added to 50 μL peptoid solution in MHB (prepared by 1:2 serial dilutions). Positive controls contained 50 μL inoculum and 50 μL MHB without peptoid. […] MIC values reported were reproducible between three independent experimental replicates, each consisting of two parallel trials. Broad-spectrum antimicrobial susceptibility testing was performed against BSL2 pathogens by Nova Biologicals, Inc. (Conroe, Tex.).
(§2) Broad-spectrum antibacterial assays. MICs of compounds were determined by microdilution procedure in Mueller-Hinton broth (MHB) in accordance with CLSI M7-A6 protocols in a manner similar to that described for the screen antibacterial assays. Inoculated microtiter plates were incubated at 35° C. for 24 hours prior to the result being recorded. Four ATCC strains that were used as standards are recommended by CLSI: Pseudomonas aeruginosa ATCC 27853, Escherichia coli ATCC 25922, Staphylococcus aureus ATCC 29213 and Enterococcus faecalis ATCC 29212. Other strains from the ATCC collection include Proteus vulgaris ATCC 49132, Proteus mirabilis ATCC 35659, Klebsiella pneumoniae ATCC 33495, Enterobacter aerogenes ATCC 35029 and Serratia marcescens ATCC 13880. S. aureus NRS100 (COL) is a well characterized methicillian-resistant S. aureus (MRSA) strain. The strains S. aureus VAN1 and S. aureus VAN2, vancomycin-resistant MRSA strains that were isolated in Michigan and Pennsylvania, were the first vancomycin-resistant strains clinically isolated. S. aureus NRS 119 and S. aureus NRS 120 are linezolid-resistant isolates from the Network on Antimicrobial Resistance in S. aureus (NARSA) collection. E. faecalis 99 and E. faecium 106 are vancomycin-resistant enterococcal strains.

[3] = tested on: Enterobacter aerogenes ATCC 35029; assay type: cell-based; conditions: for Selectivity ratio (SR): Table 7B, 10% hemolytic dose divided by MIC
Description: as §1, §2

[4] = tested on: Proteus vulgaris ATCC 49132; assay type: cell-based; conditions: for Selectivity ratio (SR): Table 7B, 10% hemolytic dose divided by MIC
Description: as §1, §2

[5] = tested on: Staphylococcus aureus ATCC 29213; assay type: cell-based; conditions: for Selectivity ratio (SR): Table 7B, 10% hemolytic dose divided by MIC
Description: as §1, §2

[6] = tested on: Pseudomonas aeruginosa ATCC 27853; assay type: cell-based; conditions: for Selectivity ratio (SR): Table 7B, 10% hemolytic dose divided by MIC
Description: as §1, §2

Enterococcus faecalis 99 = assay type: cell-based; conditions: for Selectivity ratio (SR): Table 7B, 10% hemolytic dose divided by MIC
Description: as §1, §2

Enterococcus faecium 106 = assay type: cell-based; conditions: for Selectivity ratio (SR): Table 7B, 10% hemolytic dose divided by MIC
Description: as §1, §2

[7] = tested on: Staphylococcus aureus VAN1; assay type: cell-based; conditions: for Selectivity ratio (SR): Table 7B, 10% hemolytic dose divided by MIC, S. aureus VAN1
Description: as §1, §2

six strains of S. aureus = assay: Broad-spectrum antibacterial MIC, summary over S. aureus strains; assay type: cell-based; conditions: text summary of Table 7B; 10% hemolytic dose / MIC
Description: The activities of ampetoids tested against BSL2 Gram-positive strains, however, compared very favorably to those of pexiganan.
as §2, with “E. faecalis 99 and E. faecium 106 are vancomycin-resistant enterococcal strains.” left out

Compound | Selectivity ratio (SR) [2] | Selectivity ratio (SR) ([3]; E. aerogenes ATCC 35029) | Selectivity ratio (SR) ([4]; P. vulgaris ATCC 49132) | Selectivity ratio (SR) ([5]; S. aureus ATCC 29213) | Selectivity ratio (SR) ([6]; P. aeruginosa ATCC 27853) | Selectivity ratio (SR) (Enterococcus faecalis 99; E. faecalis 99) | Selectivity ratio (SR) (Enterococcus faecium 106; E. faecium 106) | Selectivity ratio (SR) [7] | selectivity ratios, range over S. aureus strains (six strains of S. aureus) | further results
C[C@@H](c1ccccc1)N(CC(=O)N(CCc1cnc[nH]1)CC(=O)N(CCCCN)CC(=O)N(CC(=O)N(CC(=O)N(CCCCN)CC(=O)N(CC(=O)N(CCc1cnc[nH]1)CC(N)=O)[C@@H](C)c1ccccc1)[C@@H](C)c1ccccc1)[C@@H](C)c1ccccc1)C(=O)CN(CCCCN)C(=O)CN(C(=O)CN(C(=O)CNCCCCN)[C@@H](C)c1ccccc1)[C@@H](C)c1ccccc1 [1-Nhis6,12, H-(Nlys-Nspe-Nspe-Nlys-Nspe-Nhis)2-NH2] (H-[Nlys][Nspe][Nspe][Nlys][Nspe][Gly(N-CH2CH2-imidazol-4-yl)][Nlys][Nspe][Nspe][Nlys][Nspe][Gly(N-CH2CH2-imidazol-4-yl)]-NH2) |  |  |  |  |  |  |  |  |  | Selectivity ratio (SR) (E. coli JM109): > 31; bacterial counts from the peritoneal lavage ([1]; 4 mg/kg peptoid I.P. four hours post infection, 24 hours, vs saline treated controls): not reduced; mice that died prematurely during the exposure period ([1]; 4 mg/kg peptoid I.P., eleven mice for 1-Nhis6,12): eight
CC(C)[C@H](C)N(CC(=O)N(CC(=O)N(CCCCN)CC(=O)N(CC(=O)N(CC(=O)N(CCCCN)CC(=O)N(CC(=O)N(CC(=O)N(CCCCN)CC(=O)N(CC(=O)N(CC(N)=O)[C@@H](C)c1ccccc1)[C@@H](C)C(C)C)[C@@H](C)c1ccccc1)[C@@H](C)C(C)C)[C@@H](C)c1ccccc1)[C@@H](C)C(C)C)[C@@H](C)c1ccccc1)C(=O)CNCCCCN [1-Nsdp2,5,8,11, H-(Nlys-Nsdp-Nspe)4-NH2] (H-[Nlys][X1][Nspe][Nlys][X1][Nspe][Nlys][X1][Nspe][Nlys][X1][Nspe]-NH2) | 23 | 5.8 | 5.8 | 23 | 12 | 2.9 | 46 | 23 |  | MIC ([2]; NRS120): 16 µg/mL (≈ 9.51 µM); MIC ([3]; ATCC 35029): 32 µg/mL (≈ 19 µM); MIC ([4]; ATCC 49132): 32 µg/mL (≈ 19 µM); MIC ([5]; ATCC 29213): 8 µg/mL (≈ 4.75 µM); MIC ([6]; ATCC 27853): 16 µg/mL (≈ 9.51 µM); MIC (Enterococcus faecalis 99; 99): 64 µg/mL (≈ 38 µM); MIC (Enterococcus faecium 106; 106): 4 µg/mL (≈ 2.38 µM); MIC ([7]; VAN1): 8 µg/mL (≈ 4.75 µM)
NCCCCNCC(=O)N(CC(=O)N(CC(=O)N(CCCCN)CC(=O)N(CC(=O)N(CC(=O)N(CCCCN)CC(=O)N(CC(=O)N(CC(=O)N(CCCCN)CC(=O)N(CC(=O)N(CC(N)=O)Cc1ccccc1)Cc1ccccc1)Cc1ccccc1)Cc1ccccc1)Cc1ccccc1)Cc1ccccc1)Cc1ccccc1)Cc1ccccc1 [1achiral, H-(Nlys-Npm-Npm)4-NH2] (H-[Nlys][Nphe][Nphe][Nlys][Nphe][Nphe][Nlys][Nphe][Nphe][Nlys][Nphe][Nphe]-NH2) | 19 | 2.4 | 9.8 | 39 | 19 | 4.9 | 79 | 39 | 19-39 | 
GIGKFLKKAKKFGKAFVKILKK-NH2 [pexiganan, reference compound] | 2.8 | 5.7 | 5.7 | 5.7 | 46 | 1.4 | 46 | 11 | 2.8-23 | MIC ([2]; Table 7A, S. aureus NRS120 (linezolid-resistant)): 64 µg/mL; MIC ([3]; Table 7A, E. aerogenes ATCC 35029): 32 µg/mL; MIC ([4]; Table 7A, P. vulgaris ATCC 49132): 32 µg/mL; MIC ([5]; Table 7A, S. aureus ATCC 29213): 32 µg/mL; MIC ([6]; Table 7A, P. aeruginosa ATCC 27853): 4 µg/mL; MIC (Enterococcus faecalis 99; Table 7A, E. faecalis 99): 128 µg/mL; MIC (Enterococcus faecium 106; Table 7A, E. faecium 106): 4 µg/mL; MIC ([7]; Table 7A, S. aureus VAN1 (MRSA, vancomycin-resistant)): 16 µg/mL
